Results on two compounds are retold here after publication PMC10980839 (Drug Design, Development and Therapy, 2024).

Series [1] has as its system rat liver microsomes (RLMs). The series can be described thus: Inhibitory effect of baohuoside I on tofacitinib metabolism in RLMs. The class given is in vitro ADME. The conditions noted are these: Lineweaver-Burk plot.
Series [2] relates to rat liver microsomes (RLMs). The conditions noted are these: tofacitinib 1-400 μM, 0.5 mg/mL RLMs, 1 mM NADPH, 37 °C, 30 min.
For series [3] the following is noted: cited from earlier work.

Entries after “also recorded” stand apart in the source; their conditions may differ.

For `COc1ccc(-c2oc3c(CC=C(C)C)c(O)cc(O)c3c(=O)c2O[C@@H]2O[C@@H](C)[C@H](O)[C@@H](O)[C@H]2O)cc1` [Baohuoside I], the “inhibition mechanism on tofacitinib metabolism” value in series [1] was “a mixture of non-competitive and competitive inhibition; also recorded: a combination of non-competitive and competitive inhibition”.
`C[C@@H]1CCN(C(=O)CC#N)C[C@@H]1N(C)c1ncnc2[nH]ccc12` [Tofacitinib]: in series [2], the Km was determined as 39.9 µM and the Vmax is given as 4.2824 ng/min/mg. Also, the plasma protein binding entry in series [3] is reported as “about 40%”.

A word on the Km: it is the concentration of substrate that gives half-maximal velocity.
